From paper PMC12892976, “Alkylation-based optimization of antifungal FPPS inhibitors yields a potent, broad-spectrum lipophilic zoledronate derivative” (mBio, 2025)
≈ marks a conversion by molar mass, not a printed value.

What was measured:
Test in all cases: squalene rescue assay
Type in all cases: cell-based
A. fumigatus ATCC 204305 = conditions: Aspergillus fumigatus, ATCC204305, read-out: EC50 (squalene concentration rescuing 50% of growth)
Procedure: (§1) Squalene rescue assays were performed as described previously ([7]). […] After incubation at 35°C for 24 h (C. albicans), 48 h (A. fumigatus), or 72 h (C. neoformans), OD600 was measured in a BioTek ELx800 plate reader.

C. neoformans H99 = conditions: Cryptococcus neoformans, H99, read-out: EC50 (squalene concentration rescuing 50% of growth)
Procedure: as §1

C. albicans SC5314 = conditions: Candida albicans, SC5314, read-out: EC50 (squalene concentration rescuing 50% of growth)
Procedure: as §1

- EC50 (A. fumigatus ATCC 204305): 23.3 µg/mL (≈ 56.7 µM)
- EC50 (C. neoformans H99): 2.98 µg/mL (≈ 7.25 µM)
- EC50 (C. albicans SC5314): 12.4 µg/mL (≈ 30.3 µM)
SMILES: CC(C)=CCC/C(C)=C/CC/C(C)=C/CC/C=C(\C)CC/C=C(\C)CCC=C(C)C [squalene]
